In one data set the test system is RBCs. Nature of the data set: Control of hemolysis (RBC count with CASY Cell Counter and Analyzer). The format is cell-based. The settings on record: for decrease of RBC concentration compared to vehicle (DMSO) alone: 0.1 mM, 30 min at room temperature; for RBCs/ml (x10^6): RBCs at 6x10^6 cells/ml incubated with molecule at 0.1 mM for 30 min at room temperature. As to the method: At the end of the 30 min of incubation with the molecules, the number of RBC for the control of hemolysis was measure by using CASY® Cell Counter and Analyzer.
For hemolysis assays, RBCs were suspended at 6x10^6 cells/ml in the Hanks/0.4% BSA buffer and the concentration measured accurately using the CASY® Cell Counter and Analyzer. RBCs were then incubated or not with solutions comprising either Molecule 1, Molecule 2 or Molecule 3 at 0.1 mM or DMSO, for 30 min at room temperature. After this incubation time cell concentration was measured again using CASY® Cell Counter and Analyzer (Table 1). If hemolysis occurs during this incubation time it will be reflected by a decrease in the RBC concentration.

A further data set relates to laminin 521. Nature of the data set: Red blood cell adhesion to laminin 521 under flow conditions. The class given is cell-based, human. Conditions: for RBC adhesion to laminin: RBCs from sickle cell disease patients incubated with molecule at 0.1 mM for 30 min at room temperature, 3 blood samples, Figure 1; for inhibition of RBC adhesion to laminin (dose effect): increasing concentrations 50, 100 and 200 µM, same conditions as in Example 1, Figure 2. The procedure:
Red blood cell adhesion to laminin 521 was measured under flow conditions using Vena8 Endothelial+™ biochips (internal channel dimensions: length 20 mm, width 0.8 mm, height 0.12 mm) and ExiGo™ Nanopumps (Cellix Ltd, Dublin, Ireland). Three different solutions were prepared with either Molecule 1, Molecule 2 or Molecule 3 (0.1 mM) by solubilizing Molecule 1, 2 or 3 using DMSO. Recombinant human laminin 521 (BioLamina) at 5 ng/µl was immobilized on the internal surface of the biochips at 4°C overnight. RBCs from sickle cell disease patients were suspended at 5x10^7 cells/ml in Hanks balanced salt solution, without calcium chloride and magnesium sulfate (Sigma-Aldrich) supplemented with 0.4% BSA, and incubated with the solution comprising either Molecule 1, Molecule 2 or Molecule 3 at 0.1 mM or DMSO for 30 min at room temperature (20°C) and perfused through the biochip channels for 10 min at a shear stress of 0.5 dyn/cm^2 followed by a washout at the same shear stress with the buffer alone for 30 min. Five minutes washouts with the Hanks/0.4% BSA buffer were performed at 1, 2, 3, 4 and 5 dyn/cm^2. After each wash, adherent RBCs were counted in 7 representative areas along the centerline of each channel using the AxioObserver Z1 microscope and ZEN analysis software (Carl Zeiss, Le Pecq, France) and the mean number of adherent RBCs was determined for each condition and each washout step (Figure 1). Images of the same 7 areas were obtained throughout each experiment. Three adhesion assays were performed with 3 different blood samples. RBC adhesion to laminin was inhibited when the RBC suspension was incubated with Molecule 2 or 3, but not Molecule 1.
To address the dose effect of the molecules, adhesion assays were performed in the same conditions as in Example 1, using the following concentrations for Molecule 1, 2 or 3: • 50, 100 and 200 µM.

The structures appear in SMILES notation.

Take `CCC(=O)N1CCc2ccc(OCc3nc(C(=O)NCc4ccccc4)co3)cc2C1c1ccc(C)cc1` (stereo not drawn) [Molecule 1]: in the data set on RBCs, the “decrease of RBC concentration compared to vehicle (DMSO) alone” value was “no decrease” and the “RBCs/ml (x10^6)” value is recorded as 6.04 RBCs/ml (x10^6).

Consider `O=S(=O)(O)CCCn1c(=NN=Cc2c(O)ccc3ccccc23)sc2ccccc21` [Molecule 3], for which, in the data set on laminin 521, the “RBC adhesion to laminin” value is listed as “inhibited” and the “inhibition of RBC adhesion to laminin (dose effect)” value was “increasing inhibition”. Moreover, in the data set with RBCs, the “decrease of RBC concentration compared to vehicle (DMSO) alone” value is given as “no decrease” and the “RBCs/ml (x10^6)” value is listed as 6.02 RBCs/ml (x10^6).

`Cc1c(CC(=O)NC(C(=O)O)c2ccccc2)c(=O)oc2c(C)c3oc4c(c3cc12)CCCC4` (stereo not drawn) [Molecule 2]: in the data set with laminin 521, the “RBC adhesion to laminin” value is reported as “inhibited” and the “inhibition of RBC adhesion to laminin (dose effect)” value is reported as “increasing inhibition”. Further, the “RBCs/ml (x10^6)” value in the data set with RBCs is 5.55 RBCs/ml (x10^6).

The values are drawn from patent publication EP3360550A1, “MOLECULES AND PHARMACEUTICAL COMPOSITIONS, IN PARTICULAR FOR TREATING A GENETIC BLOOD DISORDER” (Université de La Réunion, priority 2017, dated 2018).
